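All cell lines were grown in 96-well plates and treated with compound for 48 hours. TGI: concentration producing complete growth inhibition.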
Legend:
Assay in all cases: growth of human tumour cells (NCI), 48 h
DLD-1 colon = tested on: DLD-1 colon
DMS 114 small cell lung = tested on: DMS 114 small cell lung
DMS 273 small cell lung = tested on: DMS 273 small cell lung
EKVX NSCLC = tested on: EKVX NSCLC
KM20L2 colon = tested on: KM20L2 colon
LXFL 529 NSCLC = tested on: LXFL 529 NSCLC
M19-MEL melanoma = tested on: M19-MEL melanoma
NCI-H226 lung = tested on: NCI-H226 lung
SK-MEL-28 melanoma = tested on: SK-MEL-28 melanoma
SK-MEL-5 melanoma = tested on: SK-MEL-5 melanoma
SNB-75 CNS = tested on: SNB-75 CNS
SNB-78 CNS = tested on: SNB-78 CNS
UACC-257 melanoma = tested on: UACC-257 melanoma
XF 498 CNS = tested on: XF 498 CNS

Measured: TGI

O=C1NCC2=C1CCC1c3ccccc3CCN21 (centres undefined)
> 100 µM: all assays above

Source: PubChem BioAssay (NCI)
